Data published in US8110228B2, “Composition for treatment of menopause” (Bionovo, Inc., priority 2005, dated 2012).
Marks after values point to notes of the source that are not given here.

Key:
breast cancer graft = breast cancer graft (xenograft) growth, control vs DES vs MF101; type: in vivo
Description: (§1) In a similar experiment, the effect of MF101 on breast cancer cells was compared to that of diethylstilbestrol (DES). […] FIGS. 3G and 3H show the effect of control, DES and MF101 on a breast cancer graft mass (FIG. 3G) and a uterine horn mass (FIG. 3H).

uterine horn = uterine horn mass, control vs DES vs MF101; type: in vivo; settings: FIG. 3H
Description: as §1

U2OS-ERα cells [1] = assay: Affymetrix U95Av2 gene expression microarray in U2OS-ERα cells; type: cell-based, human; settings: for number of genes Activated, α / number of genes Repressed, α: 10 nM E2, 1 μM raloxifene or 1 μM tamoxifen
Method: (§2) To identify genes regulated by ERα and/or ERβ, the U2OS-ERα and U2OS-ERβ cell lines were treated with doxycycline for 18 h in the absence or presence of 10 nM E2. Total RNA was used to prepare cRNA for hybridization with the human U95Av2 Affymetrix microarrays, which contain 12,600 known genes. Six sets of comparative expression data of untreated vs. each treated group were used to determine the genes regulated in ERα or ERβ cells.
(§3) Microarray data obtained from human Affymetrix U95Av2 gene chips from untreated vs. ligand-treated samples were analyzed using the Affymetrix Microarray Suite Version 5.0. Candidate genes displaying a statistically significant (p<0.05) increase or decrease signal changes relative to controls in at least three experiments were further selected by a ±0.8 signal log ratio mean cut-off. […] Fold-changes in the U2OS-ERα and U2OS-ERβ samples (in parentheses) were calculated relative to the untreated samples.

U2OS-ERβ cells [2] = assay: Affymetrix U95Av2 gene expression microarray in U2OS-ERβ cells; type: cell-based, human
Method: as §2, §3

[3] = system: U2OS-ERα and U2OS-ERβ cell lines; assay: Affymetrix U95Av2 microarray, genes regulated across U2OS-ERα and U2OS-ERβ cell lines; type: cell-based, human; settings: for number of genes Activated, α + β / number of genes Repressed, α + β: in both cell lines; for number of genes Activated, α + β / number of genes Repressed, α + β / total genes regulated in U2OSα and U2OSβ cell lines: 18 h; for total genes regulated in U2OSα and U2OSβ cell lines: p<0.05, 10 nM E2, 1 μM raloxifene or 1 μM tamoxifen
Method: as §2, §3

U2OS-ERβ cells [4] = settings: relative to untreated, 18 h
U2OS-ERα cells [5] = settings: relative to untreated, 18 h
human ERβ = target: T1, human ERβ (Homo sapiens, UniProt Q92731); assay: ERE-tk-Luc reporter activation in U2OS osteosarcoma cells transfected with ERβ; type: cell-based; settings: FIG. 1B
T1 construct: expressed in transfected cells; host or cells: U2OS osteosarcoma cells, transient transfection

[6] = system: U2OS-ERα and U2OS-ERβ cell lines; assay: Affymetrix U95Av2 microarray, genes regulated across U2OS-ERα and U2OS-ERβ cell lines; type: cell-based, human; settings: for number of common genes with opposite expression patterns in ERα cells compared to ERβ cells (*): α + β, 1 μM SERM, 18 h
[7] = only in U2OS-ERα cells, percent of all regulated genes

T1 sequence (Q92731 whole entry): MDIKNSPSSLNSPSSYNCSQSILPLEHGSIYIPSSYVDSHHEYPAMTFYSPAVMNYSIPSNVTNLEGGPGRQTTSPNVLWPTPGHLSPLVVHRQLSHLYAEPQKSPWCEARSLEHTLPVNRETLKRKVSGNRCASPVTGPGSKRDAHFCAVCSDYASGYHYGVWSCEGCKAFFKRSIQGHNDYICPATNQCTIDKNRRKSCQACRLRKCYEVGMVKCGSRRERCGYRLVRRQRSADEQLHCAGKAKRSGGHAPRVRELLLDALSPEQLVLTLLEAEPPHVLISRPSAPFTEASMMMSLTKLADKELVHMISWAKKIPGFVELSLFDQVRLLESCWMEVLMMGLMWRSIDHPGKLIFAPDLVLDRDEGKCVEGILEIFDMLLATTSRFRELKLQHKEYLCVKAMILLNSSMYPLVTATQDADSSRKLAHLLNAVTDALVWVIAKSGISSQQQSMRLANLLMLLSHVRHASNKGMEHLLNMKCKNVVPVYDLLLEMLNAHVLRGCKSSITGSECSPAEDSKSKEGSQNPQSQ

| Compound | number of genes Activated, α (U2OS-ERα cells [1]; only in U2OS-ERα cells, 18 h) | number of genes Repressed, α (U2OS-ERα cells [1]; only in U2OS-ERα cells, 18 h) | number of genes Activated, β (U2OS-ERβ cells [2]; only in U2OS-ERβ cells, 18 h) | number of genes Repressed, β (U2OS-ERβ cells [2]; only in U2OS-ERβ cells, 18 h) | number of genes Activated, α + β [3] | number of genes Repressed, α + β [3] | total genes regulated in U2OSα and U2OSβ cell lines [3] | number of common genes with opposite expression patterns in ERα cells compared to ERβ cells (*) [6] | also measured |
| --- | --- | --- | --- | --- | --- | --- | --- | --- | --- |
| CC/C(=C(/CC)c1ccc(O)cc1)c1ccc(O)cc1 [DES, diethylstilbestrol] |  |  |  |  |  |  |  |  | growth of xenograft (breast cancer graft mass) (breast cancer graft; FIG. 3G): substantial increase in xenograft mass; proliferation of breast cancer cells (breast cancer graft; FIGS. 3D-3F): proliferation-stimulating effect; growth of uterine horn mass (uterine horn): substantial increase in uterine horn growth |
| C[C@]12CC[C@@H]3c4ccc(O)cc4CC[C@H]3[C@@H]1CC[C@@H]2O [estradiol] | 33 | 32 | 87 | 38 | 34 | 4 | Estradiol: 228 genes regulated in U2OSα and U2OSβ cell lines |  | genes regulated only in the U2OS-ERα cells (U2OS-ERα cells [1]; 10 nM E2): 65 genes; genes regulated only in the U2OS-ERβ cells (U2OS-ERβ cells [2]; 10 nM E2): 125 genes; percentage of genes regulated by both ERα and ERβ ([3]; 10 nM E2, 38 of the 228): 17%; genes regulated by both ERα and ERβ ([3]; 10 nM E2, of the 228): 38 genes; total genes regulated in U2OSα and U2OSβ cell lines ([3]; listed as E2): 228 genes |
| O=C(c1ccc(OCCN2CCCCC2)cc1)c1c(-c2ccc(O)cc2)sc2cc(O)ccc12 [raloxifene] | 10 | 10 | 52 | 101 |  |  | Raloxifene: 190 genes regulated in U2OSα and U2OSβ cell lines | 17* | Mean signal log ratio ± S.E., NKG2C (α) (U2OS-ERα cells [1]; U2OS-ERα, 18 h): 2.40 ± 0.82; relative percentage of genes Activated, α (U2OS-ERα cells [1]; [7]): (5.3%); relative percentage of genes Repressed, α (U2OS-ERα cells [1]; [7]): (5.3%); Fold-change by real-time PCR, NKG2C (β) (U2OS-ERβ cells [4]): 0.36 fold; Fold-change by real-time PCR, NKG2C (α) (U2OS-ERα cells [5]): 7.54 fold; blockade of the activation of ERE-tk-Luc by MF101 (human ERβ): blocked; Mean signal log ratio ± S.E., NKG2C (β) (U2OS-ERβ cells [2]; U2OS-ERβ, 18 h): −5.20 ± 0.08; relative percentage of genes Activated, β (U2OS-ERβ cells [2]; only in U2OS-ERβ cells): (27.4%); relative percentage of genes Repressed, β (U2OS-ERβ cells [2]; only in U2OS-ERβ cells): (53.2%); relative percentage of common genes with opposite expression patterns (*) ([3]; α + β): (8.9%) |
| CC/C(=C(\c1ccccc1)c1ccc(OCCN(C)C)cc1)c1ccccc1 [tamoxifen] | 21 | 38 | 26 | 129 | 1 | 9 | Tamoxifen: 236 genes regulated in U2OSα and U2OSβ cell lines | 12* | percentage of genes regulated by tamoxifen that were also regulated by raloxifene [6]: 27% |
